Test results from patent US20210355106A1, “NEW AMINO-PYRIMIDONYL-PIPERIDINYL DERIVATIVES, A PROCESS FOR THEIR PREPARATION AND PHARMACEUTICAL COMPOSITIONS CONTAINING THEM” (LES LABORATOIRES SERVIER, priority 2018, published 2021).

Legend:
USP7 = target: T1, USP7 (Homo sapiens, UniProt Q93009, C315A); assay: Inhibition of USP7 by Fluorescence Intensity (FLINT) readings, Ubiquitin-Rhodamine-110 substrate; format: biochemical; conditions: 0.25 nM His-His-USP7 (aa208-560), 60 minutes at 30° C. preincubation; Ki determined from IC50 according to Cer et al.
T1 construct: 0.25 nM His-His-USP7 (aa208-560, |C315A|) was incubated with compound; His-His (N)
Outline: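 Kinetic rate of Rhodamine-110 release from ubiquitin substrate (50 nM or 4 μM), read every 3 min for 21 min, after 60 min, 30 °C preincubation of 0.25 nM USP7 catalytic domain C315A with compound. Bicine pH 8.0 buffer, 10% DMSO; 11-point IC50 vs DMSO and no-enzyme controls, converted to Ki.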

[1] = tested on: Z138 mantle cell lymphoma tumour cell lines; assay: In vitro cytotoxicity, MTT assay; format: cell-based; conditions: Homo sapiens, Z-138; Z138 cells, exposed to the test compounds for 96 hours
Outline: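 MTT viability read-out: after 96 hours of compound treatment, Z138 mantle cell lymphoma cells received MTT for 4 hours, and formazan production was quantified by absorbance at 540 nm.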

T1 sequence (Q93009 208-560 C315A): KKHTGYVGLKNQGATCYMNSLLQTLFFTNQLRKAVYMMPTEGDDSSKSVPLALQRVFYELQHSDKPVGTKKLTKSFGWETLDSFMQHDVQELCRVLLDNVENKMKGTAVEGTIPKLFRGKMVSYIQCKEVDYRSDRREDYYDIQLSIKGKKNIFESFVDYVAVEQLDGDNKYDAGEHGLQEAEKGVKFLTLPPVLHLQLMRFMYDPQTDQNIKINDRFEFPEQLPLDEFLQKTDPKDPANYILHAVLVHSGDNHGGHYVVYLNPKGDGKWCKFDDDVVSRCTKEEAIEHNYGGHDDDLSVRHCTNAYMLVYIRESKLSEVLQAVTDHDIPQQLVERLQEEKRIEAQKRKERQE

Ki (USP7) [nM]	SMILES	IC50 [1] [nM]
7.5	Cc1cnc(CN2CC[C@@H](C(=O)N3CC[C@](O)(Cn4cnc(Oc5ccc(Cl)c(F)c5)c(N)c4=O)C(F)(F)C3)[C@H](c3ccccc3)C2)cn1 [Example 148, 5-amino-6-(4-chloro-3-fluoro-phenoxy)-3-[[(4S)-3,3-difluoro-4-hydroxy-1-[(3R,4R)-1-[(5-methylpyrazin-2-yl)methyl]-3-phenyl-piperidine-4-carbonyl]-4-piperidyl]methyl]pyrimidin-4-one]	39.9
35.8	Cc1ccnc(CN2CC[C@@H](C(=O)N3CC[C@](O)(Cn4cnc(Oc5ccc(F)cc5)c(N)c4=O)C(F)(F)C3)[C@H](c3ccccc3)C2)n1 [Example 205]	23.5
10.7	Cc1nc(C2CCCCC2)sc1C(=O)N1CC[C@@H](C(=O)N2CCC(O)(Cn3cnc(Oc4ccc(F)cc4)c(N)c3=O)CC2)[C@H](c2ccccc2)C1 [Example 158]	5.24
12	Nc1c(Oc2ccc(F)cc2)ncn(CC2(O)CCN(C(=O)[C@@H]3CCN(C4(c5ccccc5Cl)COC4)C[C@H]3c3ccccc3)CC2)c1=O [Example 140, 5-amino-3-[[1-((3R,4R)-1-[3-(2-chlorophenyl)oxetan-3-yl]-3-phenyl-piperidine-4-carbonyl]-4-hydroxy-4-piperidyl]methyl]-6-(4-fluorophenoxy)pyrimidin-4-one]	20
56	Nc1c(Oc2cccc(C(F)(F)F)c2)ncn(CC2(O)CCN(C(=O)[C@@H]3CCN(C(=O)c4sc(I)cc4F)C[C@H]3c3ccccc3)CC2)c1=O [Example 99, 5-amino-3-[[1-((3R,4R)-1-(3-fluoro-5-iodo-thiophene-2-carbonyl)-3-phenyl-piperidine-4-carbonyl]-4-hydroxy-4-piperidyl]methyl]-6-[3-(trifluoromethyl)phenoxy]pyrimidin-4-one]	120
78	CN(C(=O)CN1CC[C@@H](C(=O)N2CCC(O)(Cn3cnc(Oc4ccc(F)cc4)c(N)c3=O)CC2)[C@H](c2ccccc2)C1)c1ccccc1 [Example 74]	70
16	CN1CCN(c2cccc(C(=O)N3CC[C@@H](C(=O)N4CCC(O)(Cn5cnc(Oc6ccc(F)cc6)c(N)c5=O)CC4)[C@H](c4ccccc4)C3)c2)CC1 [Example 56]	42
35.4	Nc1c(Oc2ccc(F)cc2)ncn(CC2(O)CCN(C(=O)[C@@H]3CCN(C(=O)C4(c5ccccc5)CC4)C[C@H]3c3ccccc3)CC2)c1=O [Example 132]	47.8
7.8	COc1cc(Oc2ncn(C[C@@]3(O)CCN(C(=O)[C@@H]4CCN(Cc5cnc(C)cn5)C[C@H]4c4ccccc4)CC3(F)F)c(=O)c2N)ccc1F [Example 154]	11.4
7.21	Cc1ccc(-c2ncc(C(=O)N3CC[C@@H](C(=O)N4CCC(O)(Cn5cnc(Oc6ccc(F)cc6)c(N)c5=O)CC4)[C@H](c4ccccc4)C3)n2C)cn1 [Example 96, 5-amino-6-(4-fluorophenoxy)-3-[(4-hydroxy-1-{(3R,4R)-1-[1-methyl-2-(6-methylpyridin-3-yl)-1H-imidazole-5-carbonyl]-3-phenylpiperidine-4-carbonyl}piperidin-4-yl)methyl]pyrimidin-4(3H)-one]	27.3
44	Nc1c(Oc2ccc(F)cc2)ncn(CC2(O)CCN(C(=O)[C@@H]3CCN(C(=O)Nc4cccc(C(F)(F)F)c4)C[C@H]3c3ccccc3)CC2)c1=O [Example 81, (3R,4R)-4-(4-{15-amino-4-(4-fluorophenoxy)-6-oxopyrimidin-[(6H)-yl]methyl}-4-hydroxypiperidine-1-carbonyl)-3-phenyl-N-[3-(trifluoromethyl)phenyl]piperidine-1-carboxamide]	5.1
12.7	Cc1cc(Cl)cc(C(=O)N2CC[C@@H](C(=O)N3CCC(O)(Cn4cnc(Oc5ccc(F)cc5)c(N)c4=O)CC3)[C@H](c3ccccc3)C2)c1 [Example 162]	3.72
9.76	Nc1c(Oc2ccc(F)cc2)ncn(CC2(O)CCN(C(=O)[C@@H]3CCN(C(=O)c4cncc(-n5cccc5)c4)C[C@H]3c3ccccc3)CC2)c1=O [Example 163, 5-amino-6-(4-fluorophenoxy)-3-[[4-hydroxy-1-[(3R,4R)-3-phenyl-1-(5-pyrrol-1-ylpyridine-3-carbonyl)piperidine-4-carbonyl]-4-piperidyl]methyl]pyrimidin-4-one]	1.41
38.5	Cc1nccc(CN2CC[C@@H](C(=O)N3CC[C@](O)(Cn4cnc(Oc5ccc(Cl)cc5)c(N)c4=O)C(F)(F)C3)[C@H](c3ccccc3)C2)n1 [Example 168]	13.8
13	Cc1ncc(-c2nc(C)c(C(=O)N3CC[C@@H](C(=O)N4CC[C@](O)(Cn5cnc(Oc6ccc(F)cc6)c(N)c5=O)C(F)(F)C4)[C@H](c4ccccc4)C3)s2)cc1C(F)(F)F [Example 185, 5-amino-3-[[(4S)-3,3-difluoro-4-hydroxy-1-[(3R,4R)-1-[4-methyl-2-[6-methyl-5-(trifluoromethyl)-3-pyridyl]thiazole-5-carbonyl]-3-phenyl-piperidine-4-carbonyl]-4-piperidyl]methyl]-6-(4-fluorophenoxy)pyrimidin-4-one]	7.65
24.9	Cc1ncc(C(=O)N2CC[C@@H](C(=O)N3CCC(O)(Cn4cnc(Oc5ccc(F)cc5)c(N)c4=O)CC3)[C@H](c3ccccc3)C2)s1 [Example 49]	31
65	Nc1c(Oc2ccc(F)cc2)ncn(CC2(O)CCN(C(=O)[C@@H]3CCN(C4(c5ccccc5F)COC4)C[C@H]3c3ccccc3)CC2)c1=O [Example 109]	11
0.558	NCc1ccc(Oc2ncn(C[C@@]3(O)CCN(C(=O)[C@@H]4CCN(C(=O)c5cc(Cl)cc(Cl)c5)C[C@H]4c4ccccc4)CC3(F)F)c(=O)c2N)cc1 [Example 222, 5-amino-6-[4-(aminomethyl)phenoxy]-3-[[(4S)-1-[(3R,4R)-1-(3,5-dichlorobenzoyl)-3-phenyl-piperidine-4-carbonyl]-3,3-difluoro-4-hydroxy-4-piperidyl]methyl]pyrimidin-4-one]	74.2
13	Cc1cc(C(=O)N2CC[C@@H](C(=O)N3CCC(O)(Cn4cnc(Oc5ccc(F)cc5)c(N)c4=O)CC3)[C@H](c3ccccc3)C2)ccn1 [Example 91, 5-amino-6-(4-fluorophenoxy)-3-[[4-hydroxy-1-[(3R,4R)-1-(2-methylpyridine-4-carbonyl)-3-phenyl-piperidine-4-carbonyl]4-piperidyl]methyl]pyrimidin-4-one]	76
37	COc1cc(Oc2ncn(C[C@@]3(O)CCN(C(=O)[C@@H]4CCN(Cc5cnc(C)cn5)C[C@H]4c4ccccc4)CC3(F)F)c(=O)c2N)ccc1Cl [Example 183, 5-amino-6-(4-chloro-3-methoxy-phenoxy)-3-[[(4S)-3,3-difluoro-4-hydroxy-1-[(3R,4R)-1-[(5-methylpyrazin-2-yl)methyl]-3-phenyl-piperidine-4-carbonyl]-4-piperidyl]methyl]pyrimidin-4-one]	9.5
30	Cc1ccnc(C(=O)N2CC[C@@H](C(=O)N3CCC(O)(Cn4cnc(Oc5ccc(F)cc5)c(N)c4=O)CC3)[C@H](c3ccccc3)C2)c1 [Example 94, 5-amino-6-(4-fluorophenoxy)-3-[[4-hydroxy-1-[(3R,4R)-1-(4-methylpyridine-2-carbonyl)-3-phenyl-piperidine-4-carbonyl]-4-piperidyl]methyl]pyrimidin-4-one]	49
7.1	Cc1nc(Br)sc1C(=O)N1CC[C@@H](C(=O)N2CCC(O)(Cn3cnc(Oc4ccc(F)cc4)c(N)c3=O)CC2)[C@H](c2ccccc2)C1 [Example 29, 5-amino-3-({1-[(3R,4R)-1-(2-bromo-4-methyl-1,3-thiazole-5-carbonyl)-3-phenylpiperidine-4-carbonyl]-4-hydroxypiperidin-4-yl}methyl)-6-(4-fluorophenoxy)pyrimidin-4(3H)-one]	1.8
25.7	COc1cc(Oc2ncn(C[C@@]3(O)CCN(C(=O)[C@@H]4CCN(Cc5nccc(C)n5)C[C@H]4c4ccccc4)CC3(F)F)c(=O)c2N)ccc1F [Example 216]	19.1
6.6	Cc1ccc(-c2ncc(CN3CC[C@@H](C(=O)N4CC[C@](O)(Cn5cnc(Oc6ccc(F)cc6)c(N)c5=O)C(F)(F)C4)[C@H](c4ccccc4)C3)s2)cn1 [Example 53]	3.4
2.6	Cc1ccc(-c2ncc(CN3CC[C@@H](C(=O)N4CCC(O)(Cn5cnc(Oc6ccc(F)cc6)c(N)c5=O)CC4)[C@H](c4ccccc4)C3)s2)cn1 [Example 51, 5-amino-6-(4-fluorophenoxy)-3-({4-hydroxy-1-[(3R,4R)-1-{{2-(6-methylpyridin-3 yl)-1,3-thiazol-5-yl]methyl}-3-phenylpiperidine-4-carbonyl]piperidin-4-yl}methyl)pyrimidin-4(3H)-one]	1.4
12.4	Cc1nc(C2CC(F)(F)C2)sc1C(=O)N1CC[C@@H](C(=O)N2CC[C@](O)(Cn3cnc(Oc4ccc(F)cc4)c(N)c3=O)C(F)(F)C2)[C@H](c2ccccc2)C1 [Example 190]	6.82
4.2	Cc1ccc(-c2nc(C)c(C(=O)N3CC[C@@H](C(=O)N4CCC(O)(Cn5cnc(Oc6ccc(CNC(=O)OC(C)(C)C)cc6)c(N)c5=O)CC4)[C@H](c4ccccc4)C3)s2)cn1 [Example 223, tert-butyl N-[[4-[5-amino-1-[[4-hydroxy-1-[(3R,4R)-1-[4-methyl-2-(6-methyl-3-pyridyl)thiazole-5-carbonyl]-3-phenyl-piperidine-4-carbonyl]-4-piperidyl]methyl]-6-oxo-pyrimidin-4-yl]oxyphenyl]methyl]carbamate]	73.2
